IC50 and EC50 data for five molecules are collected here from ChEMBL document CHEMBL6103568, “An overview of small-molecule agents for the treatment of psoriasis” (Bioorg Med Chem, 2025).

pEC50, pIC50: −log10 of the molar value.

For one assay, the target named is Phosphodiesterase 4 (Homo sapiens, UniProt P27815+Q08499+Q07343+Q08493). In words: Inhibition of PDE4 (unknown origin). It is filed as protein assay.
The target in assay [1] is Tyrosine-protein kinase JAK2 (Homo sapiens, UniProt O60674). As to the kind of experiment: Inhibition of JAK2 (unknown origin).
Assay [2] has as its target Sphingosine 1-phosphate receptor 1 (Homo sapiens, UniProt P21453). As to the kind of experiment: Agonist activity at S1P1 (unknown origin) by HTRF assay. It is filed as functional. A general note: In TR-FRET formats the signal depends on donor and acceptor labels being close together.
In assay [3] the target is 3',5'-cyclic-AMP phosphodiesterase 4B (Homo sapiens, UniProt Q07343). In words: Inhibition of PDE4B (unknown origin).
The target of a further assay is Cytochrome P450 3A5 (Homo sapiens, UniProt P20815). In words: Inhibition of CYP3A5 (unknown origin). It is filed as ADME.
Cytochrome P450 3A5, sequence (P20815 whole entry): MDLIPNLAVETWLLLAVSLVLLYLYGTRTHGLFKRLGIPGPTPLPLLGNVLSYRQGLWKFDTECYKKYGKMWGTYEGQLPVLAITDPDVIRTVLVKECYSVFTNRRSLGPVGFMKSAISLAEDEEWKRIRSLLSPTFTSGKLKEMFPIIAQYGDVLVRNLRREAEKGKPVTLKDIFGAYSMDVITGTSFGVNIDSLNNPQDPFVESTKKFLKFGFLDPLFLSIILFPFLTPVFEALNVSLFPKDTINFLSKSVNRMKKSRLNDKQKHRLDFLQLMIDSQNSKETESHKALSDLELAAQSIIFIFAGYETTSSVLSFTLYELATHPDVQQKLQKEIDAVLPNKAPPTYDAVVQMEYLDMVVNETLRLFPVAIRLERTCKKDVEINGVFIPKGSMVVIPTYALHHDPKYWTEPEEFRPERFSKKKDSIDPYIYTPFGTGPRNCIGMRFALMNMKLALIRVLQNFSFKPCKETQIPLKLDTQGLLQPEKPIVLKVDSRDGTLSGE

Tyrosine-protein kinase JAK2, sequence (O60674 whole entry): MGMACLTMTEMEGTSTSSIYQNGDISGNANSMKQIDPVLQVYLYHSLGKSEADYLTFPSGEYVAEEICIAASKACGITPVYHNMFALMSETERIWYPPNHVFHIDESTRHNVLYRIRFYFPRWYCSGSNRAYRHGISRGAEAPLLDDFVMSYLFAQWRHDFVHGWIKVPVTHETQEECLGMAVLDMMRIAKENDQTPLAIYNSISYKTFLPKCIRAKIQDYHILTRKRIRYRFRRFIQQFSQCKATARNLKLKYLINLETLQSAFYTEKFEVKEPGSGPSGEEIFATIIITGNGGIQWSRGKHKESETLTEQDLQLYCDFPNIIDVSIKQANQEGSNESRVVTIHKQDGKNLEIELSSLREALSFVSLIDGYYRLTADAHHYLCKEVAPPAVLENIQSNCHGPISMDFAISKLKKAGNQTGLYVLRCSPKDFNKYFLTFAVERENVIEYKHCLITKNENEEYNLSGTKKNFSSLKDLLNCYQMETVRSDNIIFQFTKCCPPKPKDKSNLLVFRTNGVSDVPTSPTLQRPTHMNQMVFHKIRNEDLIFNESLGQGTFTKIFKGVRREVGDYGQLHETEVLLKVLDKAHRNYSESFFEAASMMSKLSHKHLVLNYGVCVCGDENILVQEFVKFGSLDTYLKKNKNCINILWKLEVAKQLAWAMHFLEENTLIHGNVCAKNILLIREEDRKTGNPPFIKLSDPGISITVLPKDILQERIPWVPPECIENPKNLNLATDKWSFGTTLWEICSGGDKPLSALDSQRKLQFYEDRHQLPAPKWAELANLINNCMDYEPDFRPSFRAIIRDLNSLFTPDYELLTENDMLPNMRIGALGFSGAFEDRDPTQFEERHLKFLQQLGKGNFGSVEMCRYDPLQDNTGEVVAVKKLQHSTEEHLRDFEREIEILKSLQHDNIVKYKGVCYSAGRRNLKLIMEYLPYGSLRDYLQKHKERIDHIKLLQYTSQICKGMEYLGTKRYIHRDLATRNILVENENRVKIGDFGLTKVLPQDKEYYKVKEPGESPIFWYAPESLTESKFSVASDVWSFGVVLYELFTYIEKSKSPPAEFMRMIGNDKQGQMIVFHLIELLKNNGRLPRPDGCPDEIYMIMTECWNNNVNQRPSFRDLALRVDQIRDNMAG
3',5'-cyclic-AMP phosphodiesterase 4B, sequence (Q07343 whole entry): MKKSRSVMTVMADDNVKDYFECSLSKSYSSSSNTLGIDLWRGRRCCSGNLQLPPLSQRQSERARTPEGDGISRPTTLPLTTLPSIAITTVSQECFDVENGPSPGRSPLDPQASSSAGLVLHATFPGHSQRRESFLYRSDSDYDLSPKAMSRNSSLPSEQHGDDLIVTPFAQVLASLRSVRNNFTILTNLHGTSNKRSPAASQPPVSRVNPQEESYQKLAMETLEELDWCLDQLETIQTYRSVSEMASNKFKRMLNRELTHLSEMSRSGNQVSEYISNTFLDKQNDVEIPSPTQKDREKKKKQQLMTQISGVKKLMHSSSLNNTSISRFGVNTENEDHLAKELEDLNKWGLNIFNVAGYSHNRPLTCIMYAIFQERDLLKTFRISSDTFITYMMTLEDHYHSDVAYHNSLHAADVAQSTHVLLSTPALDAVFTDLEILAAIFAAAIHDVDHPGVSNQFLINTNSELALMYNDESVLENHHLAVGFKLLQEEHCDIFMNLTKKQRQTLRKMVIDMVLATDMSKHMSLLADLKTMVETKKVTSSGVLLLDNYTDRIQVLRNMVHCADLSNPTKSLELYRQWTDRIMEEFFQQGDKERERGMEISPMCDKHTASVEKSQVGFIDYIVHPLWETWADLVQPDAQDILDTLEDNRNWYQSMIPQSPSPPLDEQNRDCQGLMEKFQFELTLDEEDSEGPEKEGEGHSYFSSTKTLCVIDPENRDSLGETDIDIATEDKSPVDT
Sphingosine 1-phosphate receptor 1, sequence (P21453 whole entry): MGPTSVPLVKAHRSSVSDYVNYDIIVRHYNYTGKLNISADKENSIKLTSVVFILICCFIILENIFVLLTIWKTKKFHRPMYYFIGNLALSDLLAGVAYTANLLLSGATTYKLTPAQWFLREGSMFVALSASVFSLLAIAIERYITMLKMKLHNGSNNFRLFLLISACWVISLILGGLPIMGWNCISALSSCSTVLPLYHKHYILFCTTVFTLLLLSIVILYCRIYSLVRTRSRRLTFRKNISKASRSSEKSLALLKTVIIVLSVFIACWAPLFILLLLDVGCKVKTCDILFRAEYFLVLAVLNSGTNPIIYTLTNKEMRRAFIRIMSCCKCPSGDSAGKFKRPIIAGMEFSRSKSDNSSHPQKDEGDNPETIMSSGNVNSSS

As a reminder, the IC50 is the midpoint of a concentration-inhibition curve. As for `CCOc1cc([C@@H](CS(C)(=O)=O)N2C(=O)c3csc(NC(C)=O)c3C2=O)ccc1OC`, the IC50 at Phosphodiesterase 4 turned out to be 114 nM.

Broadly, the pIC50 is the negative decadic logarithm of the IC50, by convention in mol/L. `CCS(=O)(=O)N1CC(CC#N)C1n1cc(-c2ncnc3[nH]ccc23)cn1` (stereo not given) gave a pIC50 in assay [1] of 8.24.

As usually defined, the pEC50 is −log10 of the EC50, conventionally taken in molar units. A high value points to a low EC50. For `CCC/N=C1/S/C(=C\c2ccc(OC[C@H](O)CO)c(Cl)c2)C(=O)N1c1ccccc1C`, in assay [2], the pEC50 is 8.22.

Regarding `COc1ccc([C@H](N2C(=O)c3cccc(NC(C)=O)c3C2=O)S(C)(=O)=O)cc1OC`, the pIC50 in assay [3] was 7.13.

On Cytochrome P450 3A5, `O=C(O)CC1CCN(C(=O)c2ccc(Cl)c(Cn3ccc4cc(C(F)(F)F)cc(Cl)c43)c2Cl)CC1` [CEDIROGANT] gave a pIC50 of 6.69.
